# Test results as given in patent US20220151993A1, “TREATMENT OF ANXIETY AND DEPRESSION” (NEW YORK UNIVERSITY, priority 2020, published 2022).
# How the values were obtained:
# [1] = system: patients with cancer-related psychiatric and existential distress; assay: Hospital Anxiety and Depression Scale (HADS), long-term follow-up of psilocybin-assisted psychotherapy trial; assay type: in vivo, human; conditions: for HADS Depression / HADS Anxiety / HADS Total: single 0.3 mg/kg dose with psychotherapy; for HADS Depression: baseline 5.88; for HADS Anxiety: baseline 10.56; for HADS Total: baseline 16.45
# Experimental: (§1) The present example assesses the long-term effects of a single dose of psilocybin (0.3 mg/kg) in conjunction with psychotherapy in patients with cancer-related psychiatric and existential distress.
# (§2) 29 participants were randomly assigned to one of two groups: psilocybin (0.3 mg/kg) on the first medication session followed by niacin (250 mg) on the second session (i.e. psilocybin-first group), or niacin (250 mg) on the first medication session followed by psilocybin (0.3 mg/kg) on the second session (i.e. niacin-first group). Psilocybin and niacin were administered in identically appearing gelatin capsules.
# (§3) Participants received three 2-hour preparatory psychotherapy sessions in order to review the purpose and intention of participation in the study, treatment goals, and structure of the treatment sessions. Medications were administered in 8-hour treatment sessions which included a discussion of the participant's subjective experience with the treatment team to consolidate the memory of the experience and to begin the process of post-integrative psychotherapy. Participants also received three 2-hour post-medication integration sessions (repeated after the second dosing session) to further consolidate the memory of the experience and to continue the process of psychological integration. All psychotherapy treatment sessions were delivered by a dyadic therapy team trained in a blend of psychotherapies with an evidence base to support their use in cancer patients (drawing upon principles of palliative care therapy, existential psychotherapy, cognitive-behavioural therapy, psychoanalysis therapy, and transpersonal psychology) and were taught about the safety and clinical pharmacology of psilocybin. Each therapy dyad underwent six confidential one-to-one sessions to build their alliance and exchange ideas about psychedelic therapy. The trial employed a crossover design at seven weeks following the first drug administration, with an outcome assessment at 6.5 months (26 weeks) following the second drug administration (i.e. after the crossover).
# (§4) Two long-term follow ups (LTFUs) were carried out to assess the continued effect of psilocybin. Of the original 29 participants, all 16 participants who were not deceased at the time of LTFU were contacted (the remaining 13 participants were deceased). Of the 16 participants who were contacted, 15 agreed to participate in the LTFU and completed measures through a secure online portal. One participant died (from cancer-related complications) after completing the first LTFU and prior to the second LTFU, leaving us with 14 participants at the second LTFU. The first and second LTFUs occurred on average 3.2 years (range 2.3-4.5 years) and 4.5 years (range 3.5-5.5 years) following the participants' psilocybin dosing date, respectively.
# Primary outcomes (anxiety and depression) were measured according to the following methods: • Hospital Anxiety and Depression Scale (HADS) (Zigmond and Snaith, 1983)—this is widely used in hospital settings to screen for the severity of anxiety and depression. It contains 14 questions rated on a four-point scale (total score (HAD-T) ranges from […]). Subscale scores can be calculated for depression (HADS-D) and anxiety (HADS-A). […] The HADS has shown good reliability (Cronbach's a ranging from 0.80-0.93) and has been well validated (Herrmann, 1997). • Beck Depression Inventory-II (BDI-II) (Beck et al., 1988)—a widely used self-report screening measure for depression. The BDI-II consists of 21 questions about depressive symptoms experienced over the past two weeks rated on a […] scale (total score ranges from 0-63). Scores above 12 indicate possible clinical depression. This measure has shown good reliability (internal consistency of 0.90) and factorial validity (Storch et al. 2004). • Spielberger State-Trait Anxiety Inventory (STAI) (Spielberger, 1983)—a well-known measure of anxiety consisting of scales for state (STAI-S) and trait-level anxiety (STAI-T). […]
# [2] = system: patients with cancer-related psychiatric and existential distress; assay: Spielberger State-Trait Anxiety Inventory (STAI), long-term follow-up; assay type: in vivo, human; conditions: single 0.3 mg/kg dose with psychotherapy; for STAI State Anxiety: baseline 43.94; for STAI Trait Anxiety: baseline 47.81
# Experimental: as §1, §2, §3, §4
# Primary outcomes (anxiety and depression) were measured according to the following methods: • Hospital Anxiety and Depression Scale (HADS) (Zigmond and Snaith, 1983)—this is widely used in hospital settings to screen for the severity of anxiety and depression. It contains 14 questions rated on a four-point scale (total score (HAD-T) ranges from 0-56). Subscale scores can be calculated for depression (HADS-D) and anxiety (HADS-A). […] The HADS has shown good reliability (Cronbach's a ranging from 0.80-0.93) and has been well validated (Herrmann, 1997). • Beck Depression Inventory-II (BDI-II) (Beck et al., 1988)—a widely used self-report screening measure for depression. […]
# [3] = system: patients with cancer-related psychiatric and existential distress; assay: Demoralization Scale (DS), long-term follow-up; assay type: in vivo, human; conditions: single 0.3 mg/kg dose with psychotherapy, baseline 31.88, p < 0.001 vs baseline
# Experimental: as §1, §2
# as §3, with “Each therapy dyad underwent six confidential one-to-one sessions to build their alliance and exchange ideas about psychedelic therapy. The trial employed a crossover design at seven weeks following the first drug administration, with an outcome assessment at 6.5 months (26 weeks) following the second drug administration (i.e. after the crossover).” left out
# (§5) Cancer-related existential distress (demoralization, hopelessness, attitudes and effects associated with disease progression and death) was assessed using the following methods: • The Death Anxiety Scale (DAS) (Templer, 1970)—a 15-item measure that has been used most frequently to assess death anxiety. Items are scored “true” and “false” and then scored as one and zero, respectively. […]
# [4] = system: patients with cancer-related psychiatric and existential distress; assay: Hopelessness Assessment in Illness (HAI), long-term follow-up; assay type: in vivo, human; conditions: for Hopelessness: single 0.3 mg/kg dose with psychotherapy, baseline 5.75, p < 0.001 vs baseline
# Experimental: as §1, §2, §3
# Two long-term follow ups (LTFUs) were carried out to assess the continued effect of psilocybin. Of the original 29 participants, all 16 participants who were not deceased at the time of LTFU were contacted (the remaining 13 participants were deceased). […]
# as §5
# [5] = system: patients with cancer-related psychiatric and existential distress; assay: Existential distress measures (hopelessness, demoralization, death anxiety) combined: effect sizes; assay type: in vivo, human
# Experimental: as §1, §2, §3, §4
# Cancer-related existential distress (demoralization, hopelessness, attitudes and effects associated with disease progression and death) was assessed using the following methods: • The Death Anxiety Scale (DAS) (Templer, 1970)—a 15-item measure that has been used most frequently to assess death anxiety. Items are scored “true” and “false” and then scored as one and zero, respectively. Total scores range between 0-15. Higher scores represent increased severity of death anxiety. Scores below eight are considered normative levels of death anxiety. Templer (1970) reported adequate test-retest reliability (r=0.83) and validity. • The Hopelessness Assessment in Illness (HAI) (Rosenfeld et al., 2011)—an eight-item instrument developed for use in patients with advanced cancer. Total scores range from 0-16. Higher scores indicate higher levels of hopelessness. Data have not been published regarding recommended clinical cut-off scores for this measure. […]
# [6] = system: patients with cancer-related psychiatric and existential distress; assay: Persisting Effects Questionnaire at second long-term follow-up; assay type: in vivo, human; conditions: second LTFU (4.5 years, n=14)
# Experimental: as §2, §3
# as §4, with “The first and second LTFUs occurred on average 3.2 years (range 2.3-4.5 years) and 4.5 years (range 3.5-5.5 years) following the participants' psilocybin dosing date, respectively.” left out
# Persisting effects of psilocybin were assessed using the Persisting Effects Questionnaire (Griffiths et al., 2006, 2008) assesses self-rated changes in one's attitude, mood, behavior, and experience of spirituality. […]
# [7] = system: patients with life-threatening cancer; conditions: cited from earlier work
# [8] = Spearman, second LTFU subtracted from two-weeks post-psilocybin dose scores, p<0.01
# [9] = mean score at 3.2 years, p < 0.001 vs baseline
# [10] = mean score at 4.5 years, p < 0.01 vs baseline
# [11] = mean score at 4.5 years, p < 0.001 vs baseline
# [12] = mean score at 6.5-8 months, p < 0.001 vs baseline
compound,measurement,setting,value
"CN(C)CCc1c[nH]c2cccc(OP(=O)(O)O)c12 [psilocybin, [3-(2-dimethylaminoethyl)-1H-indol-4-yl] dihydrogen phosphate]",correlation (r) of length of time between psilocybin session and follow-up with HAD-D depression change score,[1]; [8],0.70
same,HADS Depression,[1]; [9],2.25
same,HADS Anxiety,[1]; [9],5.50
same,HADS Total,[1]; [9],7.13
same,HADS Depression,[1]; [10],2.30
same,HADS Anxiety,[1]; [11],4.99
same,HADS Total,[1]; [11],7.34
same,HADS Depression,[1]; [12],1.75
same,HADS Anxiety,[1]; [12],2.81
same,HADS Total,[1]; [12],4.38
same,participants with clinically significant reductions in global psychological distress on the HADS-T,"[1]; second LTFU point (4.5 years, n=14), 50% or greater reduction relative to baseline",Seventy-one
same,participants with clinically significant anxiolytic response on the HADS-A,"[1]; second LTFU point (4.5 years, n=14), response = 50% or greater reduction relative to baseline",57%
same,STAI State Anxiety,"[2]; mean score at 3.2 years, p < 0.01 vs baseline",33.00
same,STAI State Anxiety,"[2]; mean score at 4.5 years, p < 0.05 vs baseline",34.41
same,STAI Trait Anxiety,[2]; [10],35.78
same,STAI State Anxiety,[2]; [12],29.84
same,STAI Trait Anxiety,[2]; [12],28.23
same,Demoralization,[3]; mean score at 3.2 years,13.29
same,Demoralization,[3]; mean score at 4.5 years,14.32
same,Demoralization,[3]; mean score at 6.5-8 months,16.84
same,correlation (r) of length of time between psilocybin session and follow-up with HAI hopelessness change score,[4]; [8],0.69
same,Hopelessness,[4]; mean score at 3.2 years,2.29
same,Hopelessness,[4]; mean score at 4.5 years,1.65
same,Hopelessness,[4]; mean score at 6.5-8 months,1.65
same,"mean Cohen's d, reductions in hopelessness, demoralization and death anxiety since baseline",[5]; 6.5-month point,1.39
same,"range of Cohen's d, hopelessness, demoralization and death anxiety",[5]; 6.5-month point,0.88-2.00
same,"mean Cohen's d, reductions in hopelessness, demoralization and death anxiety since baseline",[5]; first LTFU (mean 3.2 years),1.39
same,"range of Cohen's d, hopelessness, demoralization and death anxiety",[5]; first LTFU (mean 3.2 years),0.80-1.77
same,"mean Cohen's d, reductions in hopelessness, demoralization and death anxiety since baseline",[5]; second LTFU (mean 4.5 years),1.60
same,"range of Cohen's d, hopelessness, demoralization and death anxiety",[5]; second LTFU (mean 4.5 years),1.00-2.00
same,participants appraising the psilocybin session as increasing life satisfaction or wellbeing,[6],86%
same,participants rating the psilocybin experience the single or top-five most personally meaningful experience(s) of their lives,[6],Seventy-one
same,participants rating the psilocybin experience the single or top-five most spiritually significant experience(s) of their lives,[6],ninety-six
same,"volunteers reporting moderate, strong or extreme positive behavioral change attributed to the psilocybin experience",[6],100%
same,patients meeting criteria for clinically significant antidepressant or anxiolytic responses,"[7]; final 6.5 month follow up point, 0.3 mg/kg with psychotherapy",60-80%
same,time post dosing up to which rapid and sustained anxiolytic and antidepressant effects were seen,[7]; single dosing session 0.3 mg/kg with psychotherapy,up to 7 weeks
